One data set has as its system human cytomegalovirus. The experiment in a line: CMV antiviral susceptibility assay: HCMV DNA by nucleic acid hybridization in infected MRC-5 cells (Tables I and II). The following applies: Human betaherpesvirus 5, MRC5, 120 h; HCMV-infected MRC-5 cells, HCMV DNA after five days; mean ± S.D. (n). In kind it is cell-based. Here is the method:
Phosphonoacid derivatives having structures according to formula I were tested for antiviral activity in human embryonic lung fibroblasts (MRC-5) or in human epithelioid cervical carcinoma cells (HeLa) expressing the CD4 receptor (HT4-6C). HCMV (strain AD-169) and HSV-1 (wild type) were used to infect MRC-5 cells and HCMV or HSV-specific DNA was measured by DNA-probe methods (HybriwixTM, Diagnostic Hybrids, Inc., Athens, Ohio) according to the manufacturer's instructions. HIV replication was accessed in HIV-1 infected HT4-6C cells using a plaque reduction assay ([…]. et al. (1990) Antimicrobial Agents Chemother. 34:436). Subconfluent MRC-5 cells in 24-well culture dishes were pretreated for 24 hours with various concentrations of drug in MEM medium containing 2% FBS and antibiotics. The media was removed and virus added at a dilution that will result in a 3-4+ cytopathic effect (CPE) in the no-drug wells in five days. This was absorbed for 1 hour at 37° C., aspirated and replaced with the drug dilutions. After five days of incubation HCMV DNA was quantified in triplicate by nucleic acid hybridization using a CMV Antiviral Susceptibility Test Kit from Diagnostic Hybrids, Inc. (Athens, Ohio). The media was removed and cells lysed according to the manufacturer's instructions. After absorption of the lysate, the HybriwixTM filters were hybridized overnight at 60° C. The HybriwixTM were washed for 30 minutes at 73° C. and counted in a gamma counter. The results are expressed as a percentage of the untreated HCMV-infected control cells.

For data set [1] the following is noted: in vivo; cited from earlier work.
The test system of data set [2] is DNA polymerase of many viruses, including human cytomegalovirus (HCMV), herpes simplex virus (HSV). The following applies: HSV and many other viruses; cited from earlier work.
In data set [3] the test system is reverse transcriptase of human immunodeficiency virus (HIV). The following applies: cited from earlier work.
The subject of data set [4] is human herpes simplex virus 1. The experiment in a line: HSV antiviral susceptibility assay: HSV DNA by nucleic acid hybridization in infected MRC-5 cells (Table III). It is filed as cell-based. The following applies: Human alphaherpesvirus 1, MRC5, 24 h. The procedure: (§1) Phosphonoacid derivatives having structures according to formula I were tested for antiviral activity in human embryonic lung fibroblasts (MRC-5) or in human epithelioid cervical carcinoma cells (HeLa) expressing the CD4 receptor (HT4-6C). HCMV (strain AD-169) and HSV-1 (wild type) were used to infect MRC-5 cells and HCMV or HSV-specific DNA was measured by DNA-probe methods (Hybriwix™, Diagnostic Hybrids, Inc., Athens, Ohio) according to the manufacturer's instructions. HIV replication was accessed in HIV-1 infected HT4-6C cells using a plaque reduction assay (Larder, B. et al. (1990) Antimicrobial Agents Chemother. 34:436).
Subconfluent MRC-5 cells in 24-well culture dishes were inoculated by removing the media and adding HSV-1 virus at a dilution that will result in a 3-4+ CPE in the no-drug well in 20-24 hours. This was absorbed for 1 hour at 37° C., aspirated and replaced with various concentrations of drugs in MEM medium containing 2% FBS and antibiotics. After approximately 24 hours of incubation, HSV DNA was quantified in triplicate by nucleic acid hybridization using a HSV Antiviral Susceptibility Test Kit from Diagnostic Hybrids, Inc. (Athens, Ohio). The media was removed and cells lysed according to the manufacturer's instructions. After absorption of the lysate, the Hybriwix™ filters were hybridized overnight at […] The Hybriwix™ were washed for 30 minutes at 73° C. and counted in a gamma counter. The results are expressed as a percentage of the untreated HSV-infected control cells.

The test system of data set [5] is human immunodeficiency virus-1. The experiment in a line: HIV-1 plaque reduction assay in HT4-6C cells (Table IV). The following applies: Human immunodeficiency virus 1, 72 h; HIV-1 plaque reduction in HT4-6C cells, 3 days; mean ± S.D. (n). In kind it is cell-based, HIV-1 in CD4-expressing human HeLa cells (HT4-6C). Here is the method: as §1
HT4-6C cells and plaque reduction assay, CD4-expressing HeLa cells, HT4-6C cells (Chesebro, B. and K. Wehrly (1988) J. Virology 62:3779-3788), were obtained from Bruce Chesebro, Hamilton, Mont. The effect of antiviral compounds on HIV replication was measured by a plaque reduction assay. Briefly, monolayers of HT4-6C cells were infected with 100 to 300 PFU of virus per well in 24-well microdilution plates. Various concentrations of drug were added to the culture medium, Dulbecco's Modified Eagle Medium containing 5% fetal bovine serum and antibiotics, as noted above. After 3 days at 37° C., the monolayers were fixed with 10% formaldehyde solution in phosphate-buffered saline and stained with 0.25% crystal violet to visualize virus plaques (Larder, B. et al. (1989) Science 243:1731-1734). Antiviral activity was assessed as the percentage of control plaques measured in drug-treated samples.
On the technique in general: Plaque reduction counts the foci of infection that form in a cell layer.

For orientation: IC50 means the concentration that gives 50% inhibition. Read a high IC50 as a need for much substance.

`O=C(O)CP(=O)(O)O` [PAA, phosphonoacetic acid] yielded an IC50 with human cytomegalovirus of 22 ± 7 µM. Also, in data set [1], the toxicity in humans entry is “too toxic for use in humans”. Also, the “selective inhibition of viral DNA polymerase” value in data set [2] is “selectively inhibit the DNA polymerase of many viruses”. Besides, the “selective inhibition of HIV reverse transcriptase” value in data set [3] was “selectively inhibit”.

On to `O=C(O)P(=O)(O)O` [PFA, phosphonoformic acid, reference compound], for which the IC50 stood at 46 ± 19 µM in the data set on human cytomegalovirus, 47 ± 20 µM in data set [4] and 133 ± 54 µM in data set [5]. Besides, the toxicity in humans result in data set [1] is “substantial toxicity to the kidney and other organs”. Besides, the “selective inhibition of viral DNA polymerase” value in data set [2] is recorded as “selectively inhibit the DNA polymerase of many viruses”. For the same compound, the “selective inhibition of HIV reverse transcriptase” value in data set [3] is on record as “selectively inhibit”.

Values taken from patent US5696277A, “Antiviral prodrugs” (Hostetler; Karl Y., priority 1994, dated 1997).
